Test results as given in patent US20240050428A1 (Cullgen (Shanghai), Inc., priority 2020, published 2024).
Like-named read-outs stand apart in the source and are kept apart here.

Experiments:
MV4;11 cells = experiment: Cell viability assay (CellTiter-Glo) in MV4;11 cells, alone or with gilteritinib; assay type: cell-based; conditions: Homo sapiens, MV4-11, 72 h, MV4;11 cells, three days, CellTiter-Glo, read-out: MV4
MOLM-13 cells = experiment: Cell viability assay (CellTiter-Glo) in MOLM-13 cells, alone or with gilteritinib; assay type: cell-based; conditions: Homo sapiens, MOLM-13, 72 h, MOLM-13 cells, three days, CellTiter-Glo
[1] = compound alone (without gilteritinib), 11 IC50
[2] = compound with gilteritinib 10 nM, 11 IC50 gilteritinib
[3] = compound alone (without gilteritinib), read-out: MOLM-13 IC50
[4] = compound with gilteritinib 20 nM, read-out: MOLM-13 IC50 gilteritinib
[5] = with gilteritinib 10 nM, 11 IC50 gilteritinib
[6] = with gilteritinib 20 nM, read-out: MOLM-13 IC50 gilteritinib

Row | IC50 (MV4;11 cells; [1]) [nM] | IC50 (MV4;11 cells; [2]) [nM] | IC50 (MOLM-13 cells; [3]) [nM] | IC50 (MOLM-13 cells; [4]) [nM] | IC50 (MV4;11 cells; [5]) [nM] | IC50 (MOLM-13 cells; [6]) [nM] | SMILES
1 | > 1000 |  | > 1000 |  | 100 to 1000 | 100 to 1000 | CC(CCCCCCc1ccc2c(c1)C(=O)N(C1CCC(=O)NC1=O)C2)n1cc(-c2cnc3ccccc3n2)cn1 (stereo not shown) [GS-127, 3-(1-Oxo-6-(7-(4-(quinoxalin-2-yl)-1H-pyrazol-1-yl)octyl)isoindolin-2-yl)piperidine-2,6-dione]
2 | > 1000 |  | > 1000 |  | > 1000 | > 1000 | O=C1CCC(N2C(=O)c3ccc(NC[C@H]4C[C@H](n5cc(-c6cccc(=O)[nH]6)c(C6CC6)n5)C4)cc3C2=O)C(=O)N1 (stereo partly drawn) [GS-270, 5-(((trans-3-(3-Cyclopropyl-4-(6-oxo-1,6-dihydropyridin-2-yl)-1H-pyrazol-1-yl)cyclobutyl)methyl)amino)-2-(2,6-dioxopiperidin-3-yl)isoindoline-1,3-dione]
3 | < 10 | < 10 | 10 to 100 | < 10 |  |  | O=C1CCC(N2C(=O)c3ccc(NCCCCCC(=O)N4CCC(n5cc(-c6cnc7ccc(C8=CCNCC8)cc7n6)cn5)CC4)cc3C2=O)C(=O)N1 (stereo not shown) [GS-525, 2-(2,6-Dioxopiperidin-3-yl)-5-((6-oxo-6-(4-(4-(7-(1,2,3,6-tetrahydropyridin-4-yl)quinoxalin-2-yl)-1H-pyrazol-1-yl)piperidin-1-yl)hexyl)amino)isoindoline-1,3-dione]
4 | 10 to 100 | < 10 | 10 to 100 | < 10 |  |  | O=C1CCC(N2C(=O)c3ccc(NC[C@H]4C[C@H](n5cc(-c6ncccc6N6CCNCC6)c(C6CC6)n5)C4)cc3C2=O)C(=O)N1 (stereo partly drawn) [GS-604, 5-(((trans-3-(3-cyclopropyl-4-(3-(piperazin-1-yl)pyridin-2-yl)-1H-pyrazol-1-yl)cyclobutyl)methyl)amino)-2-(2,6-dioxopiperidin-3-yl)isoindoline-1,3-dione]
5 | > 1000 | 10 to 100 | > 1000 | 10 to 100 |  |  | CN1CCC(c2ccc3nc(-c4cnn([C@H]5C[C@@H](CCCNc6ccc7c(c6)C(=O)N(C6CCC(=O)NC6=O)C7=O)C5)c4)cnc3c2)CC1 (stereo partly drawn) [GS-432, 2-(2,6-dioxopiperidin-3-yl)-5-((3-(cis-3-(4-(6-(1-methylpiperidin-4-yl)quinoxalin-2-yl)-1H-pyrazol-1-yl)cyclobutyl)propyl)amino)isoindoline-1,3-dione]
6 | 10 to 100 |  | 10 to 100 |  | < 10 | < 10 | O=C1CCC(N2Cc3ccc(CCCCCCC(=O)N4CCC(n5cc(-c6cnc7ccccc7n6)cn5)CC4)cc3C2=O)C(=O)N1 (stereo not shown) [GS-097, 3-(1-Oxo-6-(7-oxo-7-(4-(4-(quinoxalin-2-yl)-1H-pyrazol-1-yl)piperidin-1-yl)heptyl)isoindolin-2-yl)piperidine-2,6-dione]
7 | < 10 |  | < 10 |  | < 10 | < 10 | O=C1CCC(N2C(=O)c3ccc(NCCC[C@H]4C[C@@H](n5cc(-c6cnc7ccc(C8CCOCC8)cc7n6)c(C6CC6)n5)C4)cc3C2=O)C(=O)N1 (stereo partly drawn) [GS-213, 5-((3-(cis-3-(3-Cyclopropyl-4-(7-(tetrahydro-2H-pyran-4-yl)quinoxalin-2-yl)-1H-pyrazol-1-yl)cyclobutyl)propyl)amino)-2-(2,6-dioxopiperidin-3-yl)isoindoline-1,3-dione]
8 | 100 to 1000 |  | 100 to 1000 |  | 10 to 100 | 10 to 100 | O=C1CCC(N2C(=O)c3ccc(NCCC[C@H]4C[C@H](n5cc(-c6cnc7ccc(F)cc7n6)cn5)C4)cc3C2=O)C(=O)N1 (stereo partly drawn) [GS-201, 2-(2,6-Dioxopiperidin-3-yl)-5-((3-(trans-3-(4-(7-fluoroquinoxalin-2-yl)-1H-pyrazol-1-yl)cyclobutyl)propyl)amino)isoindoline-1,3-dione]
9 | 10 to 100 |  | 100 to 1000 |  | < 10 | 10 to 100 | O=C1CCC(N2C(=O)c3ccc(NC[C@H]4C[C@H](n5cc(-c6ccccc6F)c(C6CC6)n5)C4)cc3C2=O)C(=O)N1 (stereo partly drawn) [GS-289, 5-(((trans-3-(3-Cyclopropyl-4-(2-fluorophenyl)-1H-pyrazol-1-yl)cyclobutyl)methyl)amino)-2-(2,6-dioxopiperidin-3-yl)isoindoline-1,3-dione]

Second part, the molecule before the results:

Row | SMILES | IC50 (MV4;11 cells; [1]) [nM] | IC50 (MV4;11 cells; [2]) [nM] | IC50 (MOLM-13 cells; [3]) [nM] | IC50 (MOLM-13 cells; [4]) [nM] | IC50 (MV4;11 cells; [5]) [nM] | IC50 (MOLM-13 cells; [6]) [nM]
10 | O=C1CCC(N2C(=O)c3ccc(NC[C@H]4C[C@H](n5nc(C6CC6)c6ccncc65)C4)cc3C2=O)C(=O)N1 (stereo partly drawn) [GS-473, 5-(((trans-3-(3-cyclopropyl-1H-pyrazolo[3,4-c]pyridin-1-yl)cyclobutyl)methyl)amino)-2-(2,6-dioxopiperidin-3-yl)isoindoline-1,3-dione] | > 1000 | > 1000 | > 1000 | > 1000 |  | 
11 | Cn1cccc(-c2cn([C@H]3C[C@H](CNc4ccc5c(c4)C(=O)N(C4CCC(=O)NC4=O)C5=O)C3)nc2C2CC2)c1=O (stereo partly drawn) [GS-465, 5-(((trans-3-(3-cyclopropyl-4-(1-methyl-2-oxo-1,2-dihydropyridin-3-yl)-1H-pyrazol-1-yl)cyclobutyl)methyl)amino)-2-(2,6-dioxopiperidin-3-yl)isoindoline-1,3-dione] | > 1000 | 100 to 1000 | > 1000 | 10 to 100 |  | 
12 | O=C1CCC(N2C(=O)c3ccc(NCCC[C@H]4C[C@H](n5cc(-c6cnc7cc(N8CCNCC8)ccc7n6)cn5)C4)cc3C2=O)C(=O)N1 (stereo partly drawn) [GS-401, 2-(2,6-Dioxopiperidin-3-yl)-5-((3-(trans-3-(4-(6-(piperazin-1-yl)quinoxalin-2-yl)-1H-pyrazol-1-yl)cyclobutyl)propyl)amino)isoindoline-1,3-dione] | 10 to 100 |  | 10 to 100 |  | < 10 | < 10
13 | COc1ccc2ncc(-c3cnn(CCCCCCNc4ccc5c(c4)C(=O)N(C4CCC(=O)NC4=O)C5=O)c3)nc2c1 (stereo not shown) [GS-387, 2-(2,6-Dioxopiperidin-3-yl)-5-((6-(4-(7-methoxyquinoxalin-2-yl)-1H-pyrazol-1-yl)hexyl)amino)isoindoline-1,3-dione] | 100 to 1000 |  | 100 to 1000 |  | 10 to 100 | < 10
14 | O=C1CCC(N2C(=O)c3ccc(NC[C@H]4C[C@H](n5cc(-c6cnccn6)c(C6CC6)n5)C4)cc3C2=O)C(=O)N1 (stereo partly drawn) [GS-596, 5-(((trans-3-(3-Cyclopropyl-4-(pyrazin-2-yl)-1H-pyrazol-1-yl)cyclobutyl)methyl)amino)-2-(2,6-dioxopiperidin-3-yl)isoindoline-1,3-dione] | 100 to 1000 | 100 to 1000 | > 1000 | 100 to 1000 |  | 
15 | O=C1CCC(N2Cc3c(Nc4ccnc(Nc5ccc(CN6CCC(n7cc(-c8cnc9ccccc9n8)cn7)CC6)cc5)n4)cccc3C2=O)C(=O)N1 (stereo not shown) [GS-031, 3-(1-Oxo-4-((2-((4-((4-(4-(quinoxalin-2-yl)-1H-pyrazol-1-yl)piperidin-1-yl)methyl)phenyl)amino)pyrimidin-4-yl)amino)isoindolin-2-yl)piperidine-2,6-dione] | 10 to 100 |  | 10 to 100 |  | < 10 | 10 to 100
16 | O=C1CCC(N2C(=O)c3ccc(NCCC[C@H]4C[C@H](n5cc(-c6cnc7c(F)cccc7n6)cn5)C4)cc3C2=O)C(=O)N1 (stereo partly drawn) [GS-234, 2-(2,6-Dioxopiperidin-3-yl)-5-((3-(trans-3-(4-(5-fluoroquinoxalin-2-yl)-1H-pyrazol-1-yl)cyclobutyl)propyl)amino)isoindoline-1,3-dione] | < 10 |  | 100 to 1000 |  | 10 to 100 | 10 to 100
